Results: PubChem BioAssay AID248 (DTP/NCI, 2004)
Several values for one entry are separate records, joined by “and”; a condition that tells them apart may be missing. Identical values can stand only once. Inconclusive results and toxic doses are left out.

Tested on: L1210 leukemia ip in BDF1 mice, survival T/C
Test: NCI In Vivo Anticancer Drug Screen. Data for tumor model L1210 Leukemia (intraperitoneal) in B6D2F1 (BDF1) mice
Settings: endpoint: mean survival time, higher = longer survival
How it was run: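 Each compound was tested against a transplantable tumor grown in mice. The endpoint was survival, with treated animals benchmarked against vehicle controls as a simple ratio.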

[1] = dose: 100.0 mg/kg/injection, schedule: Q04DX003 (ip), vehicle: other
[2] = dose: 200.0 mg/kg/injection, schedule: Q04DX003 (ip), vehicle: other
[3] = dose: 400.0 mg/kg/injection, schedule: Q04DX003 (ip), vehicle: other
[4] = dose: 100.0 mg/kg/injection, schedule: Q04DX003 (ip), vehicle: saline with Tween-80
[5] = dose: 200.0 mg/kg/injection, schedule: Q04DX003 (ip), vehicle: saline with Tween-80
[6] = dose: 400.0 mg/kg/injection, schedule: Q04DX003 (ip), vehicle: saline with Tween-80
[7] = dose: 50.0 mg/kg/injection, schedule: Q01DX009 (ip), vehicle: saline
[8] = dose: 100.0 mg/kg/injection, schedule: Q04DX003 (ip), vehicle: saline
[9] = dose: 100.0 mg/kg/injection, schedule: Q01DX009 (ip), vehicle: Klucel (hydroxypropylcellulose) (HPC)
[10] = dose: 200.0 mg/kg/injection, schedule: Q01DX009 (ip), vehicle: Klucel (hydroxypropylcellulose) (HPC)
[11] = dose: 400.0 mg/kg/injection, schedule: Q01DX009 (ip), vehicle: Klucel (hydroxypropylcellulose) (HPC)
[12] = dose: 12.5 mg/kg/injection, schedule: Q01DX009 (ip), vehicle: Klucel (hydroxypropylcellulose) (HPC)
[13] = dose: 100.0 mg/kg/injection, schedule: Q04DX002 (ip), vehicle: Klucel (hydroxypropylcellulose) (HPC)
[14] = dose: 200.0 mg/kg/injection, schedule: Q04DX002 (ip), vehicle: Klucel (hydroxypropylcellulose) (HPC)
[15] = dose: 400.0 mg/kg/injection, schedule: Q04DX002 (ip), vehicle: Klucel (hydroxypropylcellulose) (HPC)
[16] = dose: 100.0 mg/kg/injection, schedule: Q04DX003 (ip), vehicle: Klucel (hydroxypropylcellulose) (HPC)
[17] = dose: 200.0 mg/kg/injection, schedule: Q04DX003 (ip), vehicle: Klucel (hydroxypropylcellulose) (HPC)
[18] = dose: 400.0 mg/kg/injection, schedule: Q04DX003 (ip), vehicle: Klucel (hydroxypropylcellulose) (HPC)
[19] = dose: 200.0 mg/kg/injection, schedule: Q04DX003 (ip), vehicle: saline
[20] = dose: 400.0 mg/kg/injection, schedule: Q04DX003 (ip), vehicle: saline
[21] = dose: 100.0 mg/kg/injection, schedule: Q01DX009 (sc), vehicle: olive oil, sesame oil, peanut oil
[22] = dose: 100.0 mg/kg/injection, schedule: Q04DX003 (sc), vehicle: olive oil, sesame oil, peanut oil
[23] = dose: 200.0 mg/kg/injection, schedule: Q01DX009 (sc), vehicle: olive oil, sesame oil, peanut oil
[24] = dose: 200.0 mg/kg/injection, schedule: Q04DX003 (sc), vehicle: olive oil, sesame oil, peanut oil
[25] = dose: 400.0 mg/kg/injection, schedule: Q01DX009 (sc), vehicle: olive oil, sesame oil, peanut oil
[26] = dose: 400.0 mg/kg/injection, schedule: Q04DX003 (sc), vehicle: olive oil, sesame oil, peanut oil
[27] = dose: 100.0 mg/kg/injection, schedule: Q01DX009 (ip), vehicle: saline
[28] = dose: 200.0 mg/kg/injection, schedule: Q01DX009 (ip), vehicle: saline
[29] = dose: 50.0 mg/kg/injection, schedule: Q04DX003 (ip), vehicle: Klucel (hydroxypropylcellulose) (HPC)
[30] = dose: 100.0 mg/kg/injection, schedule: Q01DX009 (ip), vehicle: saline with Tween-80

CNc1ccccc1CO
T/C [1]: 95 % of control
T/C [2]: 104 % of control
T/C [3]: 107 % of control

CCOP(=S)(OCC)SCc1ccccc1
T/C [4]: 97 % of control
T/C [5]: 98 % of control
T/C [6]: 106 % of control

COc1cc2ccc3c(c2cc1OC)CN(C)CC3
T/C (dose: 12.5 mg/kg/injection, schedule: Q01DX009 (ip), vehicle: saline): 91 % of control
T/C (dose: 25.0 mg/kg/injection, schedule: Q01DX009 (ip), vehicle: saline): 97 % of control
T/C [7]: 100 % of control
T/C [8]: 103 % of control

Cc1cc(C(=O)O)c(C)n1-c1cccc2ccccc12
T/C (dose: 75.0 mg/kg/injection, schedule: Q04DX003 (ip), vehicle: Klucel (hydroxypropylcellulose) (HPC)): 98 % of control
T/C [9]: 102 % of control
T/C (dose: 150.0 mg/kg/injection, schedule: Q04DX003 (ip), vehicle: Klucel (hydroxypropylcellulose) (HPC)): 98 % of control
T/C [10]: 108 % of control
T/C (dose: 300.0 mg/kg/injection, schedule: Q04DX003 (ip), vehicle: Klucel (hydroxypropylcellulose) (HPC)): 97 % of control
T/C [11]: 113 % of control

O=[N+]([O-])c1cc(Cl)cc(Cl)c1O
T/C [12]: 91 % of control
T/C (dose: 12.5 mg/kg/injection, schedule: Q04DX002 (ip), vehicle: Klucel (hydroxypropylcellulose) (HPC)): 90 % of control
T/C (dose: 25.0 mg/kg/injection, schedule: Q01DX009 (ip), vehicle: Klucel (hydroxypropylcellulose) (HPC)): 94 % of control
T/C (dose: 25.0 mg/kg/injection, schedule: Q04DX002 (ip), vehicle: Klucel (hydroxypropylcellulose) (HPC)): 97 % of control
T/C (dose: 50.0 mg/kg/injection, schedule: Q04DX002 (ip), vehicle: Klucel (hydroxypropylcellulose) (HPC)): 94 % of control

O=C(Nc1cccc(C(F)(F)F)c1)c1ccco1
T/C [9]: 93 % of control
T/C [13]: 106 % of control
T/C [10]: 96 % of control
T/C [14]: 95 % of control
T/C [11]: 109 % of control
T/C [15]: 104 % of control

O=P(O)(c1ccccc1)c1cccc(Cl)c1
T/C [4]: 100 % of control
T/C [5]: 91 % of control
T/C [6]: 94 % of control

N#CC1c2cc(OC(=O)c3ccccc3)ccc2C=CN1C(=O)c1ccccc1 (centres undefined)
T/C (dose: 100.0 mg/kg/injection, schedule: Q04DX003 (ip), vehicle: gum acacia): 89 % of control
T/C (dose: 200.0 mg/kg/injection, schedule: Q04DX003 (ip), vehicle: gum acacia): 89 % of control

C(=NCCc1ccccc1)c1ccccc1B1OB(c2ccccc2C=NCCc2ccccc2)OB(c2ccccc2C=NCCc2ccccc2)O1
T/C [9]: 97 % of control
T/C [16]: 91 % of control
T/C [10]: 97 % of control
T/C [17]: 89 % of control
T/C [11]: 102 % of control
T/C [18]: 94 % of control

Cc1nc(N(C)CC(=O)O)ncc1C(=O)O
T/C [13]: 91 % of control
T/C [14]: 91 % of control
T/C [15]: 94 % of control

CCOC(=O)CCSCC(C)(C)C(=O)OCC
T/C [8]: 105 % of control
T/C [19]: 105 % of control
T/C [20]: 103 % of control

Clc1ccc(OCOc2ccc(Cl)cc2)cc1
T/C [16]: 106 % of control
T/C [17]: 98 % of control
T/C [18]: 92 % of control

CCCCCCCCCCCCOCCCCCCCCCCCC
T/C [21]: 104 % of control
T/C [22]: 114 % of control
T/C [23]: 100 % of control
T/C [24]: 106 % of control
T/C [25]: 102 % of control
T/C [26]: 104 % of control

CCOC(=O)/C(Cc1ccc2ccccc2n1)=N/O
T/C [7]: 93 % of control
T/C [27]: 98 % of control
T/C [8]: 98 % of control
T/C [28]: 87 % of control
T/C [19]: 96 % of control
T/C [20]: 93 % of control

O=[N+]([O-])c1cc([N+](=O)[O-])c(Cl)cc1Cl
T/C (dose: 3.13 mg/kg/injection, schedule: Q01DX009 (ip), vehicle: Klucel (hydroxypropylcellulose) (HPC)): 101 % of control
T/C (dose: 6.25 mg/kg/injection, schedule: Q01DX009 (ip), vehicle: Klucel (hydroxypropylcellulose) (HPC)): 106 % of control
T/C [12]: 106 % of control
T/C [16]: 96 % of control
T/C [17]: 89 % of control

c1cncc(CNc2ncn[nH]2)c1
T/C [27]: 103 % of control
T/C [8]: 97 % of control
T/C [28]: 97 % of control
T/C [19]: 103 % of control
T/C (dose: 400.0 mg/kg/injection, schedule: Q01DX009 (ip), vehicle: saline): 103 % of control
T/C [20]: 95 % of control

CC(=O)Nc1cc(Cl)c([N+](=O)[O-])cc1C
T/C [13]: 110 % of control
T/C [14]: 113 % of control
T/C [15]: 103 % of control

O=[As](O)(O)Cc1cccc(F)c1
T/C (dose: 25.0 mg/kg/injection, schedule: Q04DX003 (ip), vehicle: Klucel (hydroxypropylcellulose) (HPC)): 96 % of control
T/C [29]: 101 % of control
T/C [16]: 87 % of control

O=C(c1ccccc1)C(Br)C(c1ccccc1)c1ccccc1 (centres undefined)
T/C [9]: 94 % of control
T/C [16]: 104 % of control
T/C [10]: 94 % of control
T/C [17]: 104 % of control
T/C [11]: 100 % of control
T/C [18]: 98 % of control

[Cl][Pt+2][Cl].[NH-]c1ccc(Cl)cc1[NH-]
T/C (dose: 12.5 mg/kg/injection, schedule: Q04DX003 (ip), vehicle: saline): 178 % of control
T/C (dose: 25.0 mg/kg/injection, schedule: Q04DX003 (ip), vehicle: saline): 113 % of control
T/C [8]: 105 % of control and 108 % of control
T/C (dose: 800.0 mg/kg/injection, schedule: Q04DX003 (ip), vehicle: saline): 103 % of control

O=C1N=C(C(F)(F)F)N=C1c1[nH]c(C(F)(F)F)nc1O
T/C [30]: 95 % of control
T/C [4]: 104 % of control
T/C (dose: 200.0 mg/kg/injection, schedule: Q01DX009 (ip), vehicle: saline with Tween-80): 98 % of control
T/C [5]: 100 % of control
T/C (dose: 400.0 mg/kg/injection, schedule: Q01DX009 (ip), vehicle: saline with Tween-80): 102 % of control
T/C [6]: 105 % of control

CC(=O)Nc1ccc2c(ccc3ccc4ccccc4c32)c1
T/C [13]: 102 % of control
T/C [14]: 105 % of control
T/C [15]: 105 % of control

CCCCOC(=O)C=O
T/C (dose: 50.0 mg/kg/injection, schedule: Q01DX009 (ip), vehicle: saline with Tween-80): 106 % of control
T/C [30]: 97 % of control

C=C1C(=O)OC2CC(C)C3C4OC4C(O)C3(C)C(O)C12 (centres undefined)
T/C (dose: 9.38 mg/kg/injection, schedule: Q01DX009 (ip), vehicle: saline with Tween-80): 104 % of control
T/C (dose: 18.75 mg/kg/injection, schedule: Q01DX009 (ip), vehicle: saline with Tween-80): 106 % of control
T/C (dose: 37.5 mg/kg/injection, schedule: Q01DX009 (ip), vehicle: saline with Tween-80): 102 % of control

CCc1ccc(NC(=O)C(c2ccccc2)c2ccccc2)cc1
T/C [29]: 101 % of control
T/C [9]: 92 % of control
T/C [16]: 100 % of control
T/C [10]: 89 % of control
T/C [17]: 93 % of control
T/C [11]: 89 % of control
T/C [18]: 93 % of control

c1ccc(CNc2ccccc2)cc1
T/C [21]: 95 % of control
T/C [22]: 94 % of control
T/C [23]: 92 % of control
T/C [24]: 102 % of control
T/C [25]: 100 % of control
T/C [26]: 105 % of control

COc1cccc(CN(CCC(=O)O)Cc2cccc(OC)c2)c1
T/C (dose: 100.0 mg/kg/injection, schedule: Q01DX009 (ip), vehicle: other): 100 % of control
T/C [1]: 88 % of control
T/C (dose: 200.0 mg/kg/injection, schedule: Q01DX009 (ip), vehicle: other): 102 % of control
T/C [2]: 88 % of control
T/C (dose: 400.0 mg/kg/injection, schedule: Q01DX009 (ip), vehicle: other): 102 % of control
T/C [3]: 93 % of control
